Test results: publication PMC4599575 (Journal of thrombosis and haemostasis : JTH, 2015)

How the values were obtained:
Assay in all cases: surface plasmon resonance, protein immobilised on CM5 chip, […] Langmuir fit
Type in all cases: binding
[1] = biological target: GST-rVWF73-H (GST-VWF73-H) (Homo sapiens, UniProt P04275)
[2] = biological target: VWF (plasma-derived multimeric VWF) (Homo sapiens, UniProt P04275)
[3] = biological target: T1, rADAMTS13 (rA13) (Homo sapiens, UniProt Q76LX8)
T1 sequence (Q76LX8 75-1427): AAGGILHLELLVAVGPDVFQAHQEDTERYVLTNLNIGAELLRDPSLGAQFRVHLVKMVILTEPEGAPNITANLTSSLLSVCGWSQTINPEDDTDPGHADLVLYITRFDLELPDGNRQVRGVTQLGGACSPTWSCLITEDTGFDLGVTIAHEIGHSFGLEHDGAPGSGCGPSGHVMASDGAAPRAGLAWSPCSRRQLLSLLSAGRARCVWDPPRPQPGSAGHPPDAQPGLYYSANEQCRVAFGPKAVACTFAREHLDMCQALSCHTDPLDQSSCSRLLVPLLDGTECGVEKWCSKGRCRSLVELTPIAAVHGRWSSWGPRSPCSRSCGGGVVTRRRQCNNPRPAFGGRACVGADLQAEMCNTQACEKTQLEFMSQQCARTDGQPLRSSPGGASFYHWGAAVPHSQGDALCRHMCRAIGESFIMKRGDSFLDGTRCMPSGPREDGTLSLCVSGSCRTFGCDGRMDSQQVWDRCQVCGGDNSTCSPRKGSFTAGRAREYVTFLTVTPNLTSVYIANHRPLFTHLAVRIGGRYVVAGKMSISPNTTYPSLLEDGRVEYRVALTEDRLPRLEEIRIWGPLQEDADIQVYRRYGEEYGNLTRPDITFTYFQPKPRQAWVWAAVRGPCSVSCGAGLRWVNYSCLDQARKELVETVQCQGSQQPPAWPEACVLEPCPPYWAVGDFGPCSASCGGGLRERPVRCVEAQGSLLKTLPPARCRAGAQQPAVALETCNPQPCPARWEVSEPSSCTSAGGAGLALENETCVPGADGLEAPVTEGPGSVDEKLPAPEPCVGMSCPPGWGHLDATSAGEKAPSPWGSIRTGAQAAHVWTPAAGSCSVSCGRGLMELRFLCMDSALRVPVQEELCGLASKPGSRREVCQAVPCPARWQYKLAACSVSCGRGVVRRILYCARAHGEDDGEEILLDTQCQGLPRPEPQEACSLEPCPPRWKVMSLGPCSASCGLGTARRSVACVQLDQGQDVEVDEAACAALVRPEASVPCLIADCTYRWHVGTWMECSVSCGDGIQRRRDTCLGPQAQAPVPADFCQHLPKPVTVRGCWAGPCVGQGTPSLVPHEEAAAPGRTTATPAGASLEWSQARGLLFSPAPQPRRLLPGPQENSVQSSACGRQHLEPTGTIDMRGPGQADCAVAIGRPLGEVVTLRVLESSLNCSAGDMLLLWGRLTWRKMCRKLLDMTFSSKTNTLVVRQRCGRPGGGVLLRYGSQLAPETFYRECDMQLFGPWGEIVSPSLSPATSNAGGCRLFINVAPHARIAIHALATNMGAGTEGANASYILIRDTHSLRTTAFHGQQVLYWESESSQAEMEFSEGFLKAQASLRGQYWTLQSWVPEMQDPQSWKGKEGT

Chain of GST-rVWF73-H (GST-VWF73-H) (P04275 1596-1668 limits assumed): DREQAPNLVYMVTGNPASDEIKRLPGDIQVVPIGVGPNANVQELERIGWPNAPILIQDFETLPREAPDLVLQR
Chain of VWF (plasma-derived multimeric VWF) (P04275 764-2813): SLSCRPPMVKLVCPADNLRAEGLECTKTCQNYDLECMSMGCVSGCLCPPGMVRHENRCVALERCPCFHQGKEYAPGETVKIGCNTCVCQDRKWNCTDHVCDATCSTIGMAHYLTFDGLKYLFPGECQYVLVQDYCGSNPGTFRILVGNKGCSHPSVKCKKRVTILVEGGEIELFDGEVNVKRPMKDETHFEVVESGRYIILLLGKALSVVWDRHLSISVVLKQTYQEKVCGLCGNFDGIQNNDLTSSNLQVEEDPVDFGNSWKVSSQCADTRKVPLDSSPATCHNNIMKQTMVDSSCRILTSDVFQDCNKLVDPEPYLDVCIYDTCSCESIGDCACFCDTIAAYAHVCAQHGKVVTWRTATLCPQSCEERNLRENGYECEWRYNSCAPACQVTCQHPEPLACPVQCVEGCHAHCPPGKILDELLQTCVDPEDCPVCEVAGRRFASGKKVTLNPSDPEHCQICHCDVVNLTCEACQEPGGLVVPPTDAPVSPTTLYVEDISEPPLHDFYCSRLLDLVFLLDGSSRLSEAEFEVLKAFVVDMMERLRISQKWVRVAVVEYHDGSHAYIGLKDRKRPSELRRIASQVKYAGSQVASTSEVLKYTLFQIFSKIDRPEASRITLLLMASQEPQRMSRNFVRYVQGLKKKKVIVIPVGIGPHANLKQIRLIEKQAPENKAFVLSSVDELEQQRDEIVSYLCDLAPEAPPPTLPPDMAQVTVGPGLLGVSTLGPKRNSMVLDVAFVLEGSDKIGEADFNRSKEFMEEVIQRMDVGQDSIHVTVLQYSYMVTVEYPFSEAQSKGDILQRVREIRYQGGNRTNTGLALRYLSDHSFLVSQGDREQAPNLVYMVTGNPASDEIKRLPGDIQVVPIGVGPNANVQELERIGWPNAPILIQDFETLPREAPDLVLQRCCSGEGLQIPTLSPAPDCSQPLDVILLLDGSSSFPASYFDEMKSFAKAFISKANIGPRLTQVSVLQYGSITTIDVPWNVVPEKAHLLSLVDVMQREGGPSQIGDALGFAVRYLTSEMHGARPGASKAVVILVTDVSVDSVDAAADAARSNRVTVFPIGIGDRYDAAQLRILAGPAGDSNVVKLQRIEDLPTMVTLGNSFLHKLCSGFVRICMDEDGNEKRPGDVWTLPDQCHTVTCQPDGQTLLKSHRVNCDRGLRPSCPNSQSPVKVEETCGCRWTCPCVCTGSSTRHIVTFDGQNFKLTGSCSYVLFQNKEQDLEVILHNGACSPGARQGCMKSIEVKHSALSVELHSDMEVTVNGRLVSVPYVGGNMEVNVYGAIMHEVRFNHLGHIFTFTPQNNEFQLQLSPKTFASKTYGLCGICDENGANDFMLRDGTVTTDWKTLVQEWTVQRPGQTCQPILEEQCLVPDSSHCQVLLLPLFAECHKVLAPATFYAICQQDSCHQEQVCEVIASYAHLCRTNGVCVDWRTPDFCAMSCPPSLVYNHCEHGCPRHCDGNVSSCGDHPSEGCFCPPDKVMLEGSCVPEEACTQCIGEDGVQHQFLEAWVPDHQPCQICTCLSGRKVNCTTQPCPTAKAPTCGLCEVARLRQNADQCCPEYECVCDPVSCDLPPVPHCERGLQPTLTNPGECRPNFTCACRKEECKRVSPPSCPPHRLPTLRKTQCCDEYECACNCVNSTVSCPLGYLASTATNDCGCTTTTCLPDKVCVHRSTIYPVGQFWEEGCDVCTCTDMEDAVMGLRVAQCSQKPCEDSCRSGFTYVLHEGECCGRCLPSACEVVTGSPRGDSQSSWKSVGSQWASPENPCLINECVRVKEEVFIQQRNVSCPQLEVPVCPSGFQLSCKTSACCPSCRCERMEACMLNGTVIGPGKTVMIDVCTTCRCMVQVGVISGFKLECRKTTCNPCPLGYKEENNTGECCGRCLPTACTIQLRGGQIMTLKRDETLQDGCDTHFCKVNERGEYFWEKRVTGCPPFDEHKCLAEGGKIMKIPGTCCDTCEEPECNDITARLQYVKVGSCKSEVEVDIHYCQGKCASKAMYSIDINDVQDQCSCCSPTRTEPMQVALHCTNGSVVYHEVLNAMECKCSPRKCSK

- Kd [1]: 57.5 ± 80.7 µM
- Kd [2]: 29.6 ± 40.1 µM
- Kd [3]: 17.5 ± 4 µM
Compound: C=CC1=C(C)/C(=C/c2[nH]c(Cc3[nH]c(/C=C4\NC(=O)C(C)=C4C=C)c(C)c3CCC(=O)O)c(CCC(=O)O)c2C)NC1=O [unconjugated bilirubin]
